In patent US7556795B2, “Radiopharmaceutical formulations” (Bracco Imaging S.p.A., priority 2002, dated 2009):

Test: Radiochemical purity (RCP) of 99mTc labeled peptide by HPLC
Type: physicochemical
Settings: 99mTc complex, 4 μg ligand, 300 μL EtOH, ~40 mCi 99mTcO4-, average of multiple experiments; for Percent RCP at 6 hours: prepared at room temperature; for Percent RCP at 15 min: room temperature 15 min
Description: To prepare the ^99mTc complex of Compound 1, 300 μL of ethanol, 50 μL of ligand solution (4 μg Compound 1), 200 μL of gentisic acid solution (20 mg), 50 μL of hydroxypropyl-γ-cyclodextrin solution (2.5 mg) 100 μL of stannous gluconate solution (40 μg of SnCl2), and ^99mTcO4^− (˜40 mCi) was added. Water was added to bring the final volume to 1.0 mL, and the reaction was heated at 100° C. for 15-20 min.
The ^99mTc labeled peptide purity was determined by HPLC using a Vydac C18 protein and peptide analytical column, 300 A pore size, 4.6×250 mm column length. The following gradient (flow rate 1 mL/min) was used: Isocratic elution 78% H2O (0.1% TFA)/22% CH3CN (0.1% TFA) for 20 min, gradient from 78% to 40% CH3CN (0.1% TFA) over 5 min, hold at 40% CH3CN (0.1% TFA) for 10 min, ramp from 40% to 78% CH3CN (0.1% TFA) over 5 min.
To prepare the ^99mTc complex, 50 μL of ligand solution (4 μg Compound 1-4), 300 μL of EtOH, 250 μL of gentisic acid solution (20 mg), 50 μL of 1SnCl2: 34 Gluconic acid (40 μg of SnCl2), and ^99mTcO4^− (˜40 mCi, Syncor) was added. Water was added to bring the final volume to 1.0 mL, and the reaction was allowed to stand at room temperature for 15 min. The solutions were then analyzed for RCP as described in Example 2.
To 50 μL of the Compound 1 solution (4 μg) was added ^99mTcO4^− (190 μL, 41.5 mCi), 0.458 mL of H2O, 50 μL of the stannous gluconate solution (40 μg of SnCl2) and 262 μL of gentisic acid solution (20 mg). The reaction was heated at 100° for 5 min. prior to HPLC analysis, which was performed using the following system: Vydac C-18 Protein and Peptide column (4.6×250 mm) eluted with 78% H2O (0.1% TFA)/22% CH3CN (0.1% TFA) for 20′, ramped from 78% to 40% H2O (0.1% TFA) in 5′, held at 40% H2O (0.1% TFA) for 10′, then ramped from 40% to 78% H2O (0.1% TFA) in 5′. Flow rate: 1 mL/min. The resulting RCP was 87.4% initially and 87.1% at 6 hours. The recovery from the vial was 67%.

Compound	Percent RCP at 6 hours [%]	Percent RCP at 15 min [%]
CSCC[C@H](NC(=O)[C@H](CC(C)C)NC(=O)[C@H](Cc1cnc[nH]1)NC(=O)CNC(=O)[C@@H](NC(=O)[C@H](C)NC(=O)[C@H](Cc1c[nH]c2ccccc12)NC(=O)[C@H](CCC(N)=O)NC(=O)CCCCNC(=O)CNC(=O)[C@H](CS)NC(=O)CNC(=O)CN)C(C)C)C(N)=O [Compound 4]	83.3	83.3
CSCC[C@H](NC(=O)[C@H](CC(C)C)NC(=O)[C@H](Cc1cnc[nH]1)NC(=O)CNC(=O)[C@@H](NC(=O)[C@H](C)NC(=O)[C@H](Cc1c[nH]c2ccccc12)NC(=O)[C@H](CCC(N)=O)NC(=O)CCCCNC(=O)CNC(=O)[C@H](CS)NC(=O)[C@H](CO)NC(=O)CN)C(C)C)C(N)=O [Compound 3]	82.4	86.7
CSCC[C@H](NC(=O)[C@H](CC(C)C)NC(=O)[C@H](Cc1cnc[nH]1)NC(=O)CNC(=O)[C@@H](NC(=O)[C@H](C)NC(=O)[C@H](Cc1c[nH]c2ccccc12)NC(=O)[C@H](CCC(N)=O)NC(=O)CCCCNC(=O)CNC(=O)[C@H](CS)NC(=O)CNC(=O)CN(C)C)C(C)C)C(N)=O [Compound 2]	78.7	80.8
CSCCC(NC(=O)[C@H](CC(C)C)NC(=O)[C@H](Cc1cnc[nH]1)NC(=O)CNC(=O)[C@@H](NC(=O)[C@H](C)NC(=O)[C@H](Cc1c[nH]c2ccccc12)NC(=O)[C@H](CCC(N)=O)NC(=O)CCCCNC(=O)CNC(=O)[C@H](CS)NC(=O)[C@H](CO)NC(=O)CN(C)C)C(C)C)C(N)=O (stereo partly shown) [Compound 1]	88.1	
